Values of other authors as cited in patent US20110015368A1, “CD4-RECEPTOR-DERIVED PEPTIDES AND METHOD FOR THE PREPARATION THEREOF” (priority 2006, published 2011).

system: HIV; conditions: Esté et al. 1997

| Substance | Inhibiting the infection of cells by HIV |
| --- | --- |
| chondroitin sulphate | not |
| dextran sulphate | capable of inhibiting the infection of cells by HIV |
| heparin | capable of inhibiting the infection of cells by HIV |
